Each molecule was assayed against T1, KRAS G12C 1-169, his-tagged protein, GDP-loaded (Homo sapiens, UniProt P01116, G12C) (assay: Biochemical assay: covalent modification of KRAS G12C measured by mass spectrometry (RapidFire/TOF or Q-Exactive)). Conditions: covalent binding to KRAS G12C; compounds of structure (II).
T1 construct: KRAS G12C 1-169, his-tagged protein, GDP-loaded
Summary of the method: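 Covalent adduct formation read by intact-mass spectrometry (TOF or Q Exactive Plus, charge envelopes deconvoluted into modified and unmodified species) after formic acid quench. Reactions contained 2 μM GDP-bound KRAS G12C 1-169 (his-tag) in Hepes/NaCl/MgCl2 buffer plus 10, 30 or 100 μM final compound, held 30 min, 2 h or 24 h at room temperature.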

Row | Structure (SMILES) | Binding %
1 | C=CC(=O)Nc1ncc(-c2ncnc3c(F)c(-c4c(O)cccc4F)c(Cl)cc23)s1 [II-13, N-(5-(6-chloro-8-fluoro-7-(2-fluoro-6-hydroxyphenyl)quinazolin-4-yl)thiazol-2-yl)acrylamide] | ++ (++ indicates binding activity greater than 50% and less than 75%)

Same assay, conditions: covalent binding to KRAS G12C; compounds of structure (III)

Row | Structure (SMILES) | Binding %
2 | C=CC(=O)N1C[C@H](C)N(c2ncnc3c(F)c(-c4c(O)cccc4F)c(Cl)cc23)C[C@H]1C [III-1, 1-((2R,5S)-4-(6-chloro-8-fluoro-7-(2-fluoro-6-hydroxy-phenyl)quinazolin-4-yl)-2,5-dimethyl-piperazin-1-yl)prop-2-en-1-one] | ++ (++ indicates activity from 50% to 90%)
3 | C=CC(=O)N1C[C@H](C)N(c2ncnc3c(F)c(-c4c(F)cccc4OC)c(Cl)cc23)C[C@H]1C [III-2, 1-((2R,5S)-4-(6-chloro-8-fluoro-7-(2-fluoro-6-methoxy-phenyl)quinazolin-4-yl)-2,5-dimethyl-piperazin-1-yl)prop-2-en-1-one] | + (+ indicates binding activity up to 50%)
4 | C=CC(=O)N1CCN(c2ncnc3c(F)c(-c4c(C)ccc5cn[nH]c45)c(Cl)cc23)[C@@H](C)C1 [III-3, 1-((3S)-4-(6-chloro-8-fluoro-7-(6-methyl-1H-indazol-7-yl)quinazolin-4-yl)-3-methyl-piperazin-1-yl)prop-2-en-1-one] | ++ (++ indicates activity from 50% to 90%)
5 | C=CC(=O)N1CCN(c2ncnc3c(F)c(-c4c(O)cccc4F)c(Cl)cc23)CC1C (stereo not shown) [III-5, 1-(4-(6-chloro-8-fluoro-7-(2-fluoro-6-hydroxy-phenyl)quinazolin-4-yl)-2-methyl-piperazin-1-yl)prop-2-en-1-one] | ++ (++ indicates activity from 50% to 90%)
6 | C=CC(=O)N1CCN(c2ncnc3c(F)c(-c4c(O)cccc4F)c(Cl)cc23)CC1(C)C [III-7, 1-(4-(6-chloro-8-fluoro-7-(2-fluoro-6-hydroxy-phenyl)quinazolin-4-yl)-2,2-dimethyl-piperazin-1-yl)prop-2-en-1-one] | + (+ indicates binding activity up to 50%)
7 | C=CC(=O)N1CCN(c2ncnc3c(F)c(-c4c(O)cccc4F)c(Cl)cc23)CC1CO (stereo not shown) [III-8, 1-(4-(6-chloro-8-fluoro-7-(2-fluoro-6-hydroxy-phenyl)quinazolin-4-yl)-2-(hydroxy-methyl)piperazin-1-yl)prop-2-en-1-one] | ++ (++ indicates activity from 50% to 90%)
8 | C=CC(=O)N1C(C)CN(c2ncnc3c(F)c(-c4c(O)cccc4F)c(Cl)cc23)CC1C (stereo not shown) [III-9, 1-(4-(6-chloro-8-fluoro-7-(2-fluoro-6-hydroxy-phenyl)quinazolin-4-yl)-2,6-dimethyl-piperazin-1-yl)prop-2-en-1-one] | ++ (++ indicates activity from 50% to 90%)
9 | C=CC(=O)N1CCN(c2ncnc3c(F)c(-c4c(O)cccc4F)c(Cl)cc23)CC12CC2 [III-10, 1-(7-(6-chloro-8-fluoro-7-(2-fluoro-6-hydroxy-phenyl)quinazolin-4-yl)-4,7-diazaspiro [2.5]octan-4-yl)prop-2-en-1-one] | + (+ indicates binding activity up to 50%)
10 | C=CC(=O)N1CCN(c2ncnc3c(F)c(-c4c(O)cccc4F)c(Cl)cc23)CC1C(F)(F)F (stereo not shown) [III-11, 1-(4-(6-chloro-8-fluoro-7-(2-fluoro-6-hydroxy-phenyl)quinazolin-4-yl)-2-(trifluoro-methyl)piperazin-1-yl)prop-2-en-1-one] | +++ (+++ indicates binding activity greater than 90%)
11 | C=CC(=O)N1CCN(c2ncnc3c(F)c(-c4c(O)cccc4F)c(Cl)cc23)[C@H](C)C1 [III-12, 1-((3R)-4-(6-chloro-8-fluoro-7-(2-fluoro-6-hydroxy-phenyl)quinazolin-4-yl)-3-methyl-piperazin-1-yl)prop-2-en-1-one] | + (+ indicates binding activity up to 50%)
12 | C=CC(=O)N1CCN(c2ncnc3c(F)c(-c4c(F)cccc4OC)c(Cl)cc23)[C@H](C)C1 [III-13, 1-((3R)-4-(6-chloro-8-fluoro-7-(2-fluoro-6-methoxy-phenyl)quinazolin-4-yl)-3-methyl-piperazin-1-yl)prop-2-en-1-one] | + (+ indicates binding activity up to 50%)
13 | C=CC(=O)N1CCN(c2ncnc3c(F)c(-c4c(O)cccc4F)c(Cl)cc23)C2CC21 (stereo not shown) [III-16, 1-(5-(6-chloro-8-fluoro-7-(2-fluoro-6-hydroxy-phenyl)quinazolin-4-yl)-2,5-diazabicyclo [4.1.0.]heptan-2-yl)prop-2-en-1-one] | + (+ indicates binding activity up to 50%)
14 | C=CC(=O)N1CCN(c2ncnc3c(F)c(-c4c(O)cccc4F)c(Cl)cc23)CC1C(F)F (stereo not shown) [III-19, 1-(4-(6-chloro-8-fluoro-7-(2-fluoro-6-hydroxy-phenyl)quinazolin-4-yl)-2-(difluoro-methyl)piperazin-1-yl)prop-2-en-1-one] | +++ (+++ indicates binding activity greater than 90%)
15 | C=CC(=O)N1CCN(c2ncnc3c(F)c(-c4c(C)ccc5[nH]ncc45)c(Cl)cc23)[C@@H](C)C1 [III-25, 1-((3S)-4-(6-chloro-8-fluoro-7-(5-methyl-1H-indazol-4-yl)quinazolin-4-yl)-3-methyl-piperazin-1-yl)prop-2-en-1-one] | +++ (+++ indicates binding activity greater than 90%)
16 | C=CC(=O)N1[C@H](C)CN(c2ncnc3c(F)c(-c4c(C)ccc5[nH]ncc45)c(Cl)cc23)C[C@@H]1C [III-26, 1-((2S,6R)-4-(6-chloro-8-fluoro-7-(5-methyl-1H-indazol-4-yl)quinazolin-4-yl)-2,6-dimethyl-piperazin-1-yl)prop-2-en-1-one] | ++ (++ indicates activity from 50% to 90%)
17 | C=CC(=O)N1[C@H](C)CN(c2ncnc3c(F)c(-c4cc(O)cc5ccccc45)c(Cl)cc23)C[C@@H]1C [III-27, 1-((2S,6R)-4-(6-chloro-8-fluoro-7-(3-hydroxy-naphthalen-1-yl)quinazolin-4-yl)-2,6-dimethyl-piperazin-1-yl)prop-2-en-1-one] | +++ (+++ indicates binding activity greater than 90%)
18 | C=CC(=O)N1C[C@@H](C)N(c2ncnc3c(F)c(-c4c(O)cccc4F)c(Cl)cc23)[C@@H](C)C1 [III-28, 1-((3R,5S)-4-(6-chloro-8-fluoro-7-(2-fluoro-6-hydroxy-phenyl)quinazolin-4-yl)-3,5-dimethyl-piperazin-1-yl)prop-2-en-1-one] | +++ (+++ indicates binding activity greater than 90%)
19 | C=CC(=O)N1CCN(c2ncnc3c(F)c(-c4cc(O)cc5ccccc45)c(Cl)cc23)[C@@H](C)C1 [III-30, 1-((3S)-4-(6-chloro-8-fluoro-7-(3-hydroxy-naphthalen-1-yl)quinazolin-4-yl)-3-methyl-piperazin-1-yl)prop-2-en-1-one] | +++ (+++ indicates binding activity greater than 90%)
20 | C=CC(=O)N1CCN(c2ncnc3c(F)c(-c4c(O)cccc4F)c(Cl)cc23)C2(CC2)C1 [III-31, 1-(4-(6-chloro-8-fluoro-7-(2-fluoro-6-hydroxy-phenyl)quinazolin-4-yl)-4,7-diazaspiro [2.5]octan-7-yl)prop-2-en-1-one] | + (+ indicates binding activity up to 50%)
21 | C=CC(=O)N1CCN(c2ncnc3c(F)c(-c4c(O)cccc4F)c(Cl)cc23)[C@@H](CC)C1 [III-32, 1-((3S)-4-(6-chloro-8-fluoro-7-(2-fluoro-6-hydroxy-phenyl)quinazolin-4-yl)-3-ethyl-piperazin-1-yl)prop-2-en-1-one] | ++ (++ indicates activity from 50% to 90%)
22 | C=CC(=O)N1C[C@@H](C)N(c2ncnc3c(F)c(-c4c(O)cccc4F)c(Cl)cc23)[C@H](C)C1 [III-33, 1-((3R,5R)-4-(6-chloro-8-fluoro-7-(2-fluoro-6-hydroxy-phenyl)quinazolin-4-yl)-3,5-dimethyl-piperazin-1-yl)prop-2-en-1-one] | + (+ indicates binding activity up to 50%)
23 | C=CC(=O)N1CCN(c2ncnc3c(F)c(-c4c(O)cccc4F)c(Cl)cc23)[C@@H](C(C)C)C1 [III-34, 1-((3S)-4-(6-chloro-8-fluoro-7-(2-fluoro-6-hydroxy-phenyl)quinazolin-4-yl)-3-isopropyl-piperazin-1-yl)prop-2-en-1-one] | + (+ indicates binding activity up to 50%)
24 | C=CC(=O)N1[C@H](C)CN(c2ncnc3c(F)c(-c4c(C)ccc5cn[nH]c45)c(Cl)cc23)C[C@@H]1C [III-35, 1-((2S,6R)-4-(6-chloro-8-fluoro-7-(6-methyl-1H-indazol-7-yl)quinazolin-4-yl)-2,6-dimethyl-piperazin-1-yl)prop-2-en-1-one] | +++ (+++ indicates binding activity greater than 90%)
25 | C=CC(=O)N1CCN(c2ncnc3c(F)c(-c4c(O)cccc4F)c(Cl)cc23)C(=O)C1 [III-38, 4-acryloyl-1-(6-chloro-8-fluoro-7-(2-fluoro-6-hydroxy-phenyl)quinazolin-4-yl) piperazin-2-one] | ++ (++ indicates activity from 50% to 90%)
26 | C=CC(=O)N1CCN(c2ncnc3c(F)c(-c4c(O)cccc4F)c(Cl)cc23)[C@@H](CO)C1 [III-39, 1-((3R)-4-(6-chloro-8-fluoro-7-(2-fluoro-6-hydroxy-phenyl)quinazolin-4-yl)-3-(hydroxy-methyl)piperazin-1-yl)prop-2-en-1-one] | + (+ indicates binding activity up to 50%)
27 | C=CC(=O)N1C[C@@H](C)N(c2ncnc3c(F)c(-c4c(C)ccc5[nH]ncc45)c(Cl)cc23)[C@@H](C)C1 [III-40, 1-((3S,5R)-4-(6-chloro-8-fluoro-7-(5-methyl-1H-indazol-4-yl)quinazolin-4-yl)-3,5-dimethyl-piperazin-1-yl)prop-2-en-1-one] | ++ (++ indicates activity from 50% to 90%)
28 | C=CC(=O)N1C[C@@H](C)N(c2ncnc3c(F)c(-c4cc(O)cc5ccccc45)c(Cl)cc23)[C@@H](C)C1 [III-41, 1-((3S,5R)-4-(6-chloro-8-fluoro-7-(3-hydroxy-naphthalen-1-yl)quinazolin-4-yl)-3,5-dimethyl-piperazin-1-yl)prop-2-en-1-one] | ++ (++ indicates activity from 50% to 90%)
